Laboratory results taken from the NIST ThermoML archive (doi:10.1016/j.jct.2015.08.014).
Numbers after ± are expanded uncertainties.

Experiment: xn = mol fraction of the nth substance listed
Conditions: 100 kPa, Liquid; for electrical conductivity: Alternating current cell with electrodes; for mass density: Vibrating tube method; for viscosity: Capillary tube (Ostwald / Ubbelohde) method

CCCC[N+]1(C)CCCC1.N#CN=C=[N-] [1-butyl-1-methylpyrrolidinium dicyanamide] + O=C1CCCO1
Conditions | electrical conductivity [S/m]
273.15 K, Frequency=0.00892857 MHz, x1 = 0.9013 | 0.563 ± 0.006
273.15 K, Frequency=0.00892857 MHz, x1 = 1 | 0.523 ± 0.005
273.15 K, Frequency=0.00961538 MHz, x1 = 0.0463 | 0.978 ± 0.016
273.15 K, Frequency=0.00961538 MHz, x1 = 0.0987 | 1.43 ± 0.017
273.15 K, Frequency=0.00961538 MHz, x1 = 0.1449 | 1.57 ± 0.016
273.15 K, Frequency=0.00961538 MHz, x1 = 0.1859 | 1.635 ± 0.016
273.15 K, Frequency=0.00961538 MHz, x1 = 0.2493 | 1.517 ± 0.015
273.15 K, Frequency=0.00961538 MHz, x1 = 0.3029 | 1.42 ± 0.015
273.15 K, Frequency=0.00961538 MHz, x1 = 0.3845 | 1.25 ± 0.013
273.15 K, Frequency=0.00961538 MHz, x1 = 0.4985 | 1.03 ± 0.011
273.15 K, Frequency=0.00961538 MHz, x1 = 0.6954 | 0.742 ± 0.008
273.15 K, Frequency=0.00961538 MHz, x1 = 0.9013 | 0.563 ± 0.006
273.15 K, Frequency=0.00961538 MHz, x1 = 1 | 0.523 ± 0.005
273.15 K, Frequency=0.01 MHz, x1 = 0.0463 | 0.978 ± 0.016
273.15 K, Frequency=0.01 MHz, x1 = 0.0987 | 1.43 ± 0.017
273.15 K, Frequency=0.01 MHz, x1 = 0.1449 | 1.57 ± 0.016
273.15 K, Frequency=0.01 MHz, x1 = 0.1859 | 1.635 ± 0.016
273.15 K, Frequency=0.01 MHz, x1 = 0.2493 | 1.517 ± 0.015
273.15 K, Frequency=0.01 MHz, x1 = 0.3029 | 1.42 ± 0.015
273.15 K, Frequency=0.01 MHz, x1 = 0.3845 | 1.25 ± 0.013
273.15 K, Frequency=0.01 MHz, x1 = 0.4985 | 1.03 ± 0.011
273.15 K, Frequency=0.01 MHz, x1 = 0.6954 | 0.742 ± 0.008
273.15 K, Frequency=0.01 MHz, x1 = 0.9013 | 0.563 ± 0.006
273.15 K, Frequency=0.01 MHz, x1 = 1 | 0.523 ± 0.005
283.15 K, Frequency=0.0005 MHz, x1 = 0.0463 | 1.16 ± 0.02
283.15 K, Frequency=0.0005 MHz, x1 = 0.0987 | 1.73 ± 0.021
283.15 K, Frequency=0.0005 MHz, x1 = 0.1449 | 1.92 ± 0.02
283.15 K, Frequency=0.0005 MHz, x1 = 0.1859 | 2.018 ± 0.02
283.15 K, Frequency=0.0005 MHz, x1 = 0.2493 | 1.921 ± 0.019
283.15 K, Frequency=0.0005 MHz, x1 = 0.3029 | 1.84 ± 0.019
283.15 K, Frequency=0.0005 MHz, x1 = 0.3845 | 1.65 ± 0.017
283.15 K, Frequency=0.0005 MHz, x1 = 0.4985 | 1.407 ± 0.014
283.15 K, Frequency=0.0005 MHz, x1 = 0.6954 | 1.07 ± 0.01
283.15 K, Frequency=0.0005 MHz, x1 = 0.9013 | 0.849 ± 0.009
283.15 K, Frequency=0.0005 MHz, x1 = 1 | 0.786 ± 0.008
283.15 K, Frequency=0.001 MHz, x1 = 0.0463 | 1.16 ± 0.02
283.15 K, Frequency=0.001 MHz, x1 = 0.0987 | 1.73 ± 0.021
283.15 K, Frequency=0.001 MHz, x1 = 0.1449 | 1.92 ± 0.02
283.15 K, Frequency=0.001 MHz, x1 = 0.1859 | 2.027 ± 0.02
283.15 K, Frequency=0.001 MHz, x1 = 0.2493 | 1.923 ± 0.019
283.15 K, Frequency=0.001 MHz, x1 = 0.3029 | 1.84 ± 0.019
283.15 K, Frequency=0.001 MHz, x1 = 0.3845 | 1.65 ± 0.017
283.15 K, Frequency=0.001 MHz, x1 = 0.4985 | 1.407 ± 0.014
283.15 K, Frequency=0.001 MHz, x1 = 0.6954 | 1.07 ± 0.01
283.15 K, Frequency=0.001 MHz, x1 = 0.9013 | 0.849 ± 0.009
283.15 K, Frequency=0.001 MHz, x1 = 1 | 0.786 ± 0.008
283.15 K, Frequency=0.0015 MHz, x1 = 0.0463 | 1.17 ± 0.02
283.15 K, Frequency=0.0015 MHz, x1 = 0.0987 | 1.73 ± 0.021
283.15 K, Frequency=0.0015 MHz, x1 = 0.1449 | 1.92 ± 0.02
283.15 K, Frequency=0.0015 MHz, x1 = 0.1859 | 2.027 ± 0.02
283.15 K, Frequency=0.0015 MHz, x1 = 0.2493 | 1.924 ± 0.019
283.15 K, Frequency=0.0015 MHz, x1 = 0.3029 | 1.84 ± 0.019
283.15 K, Frequency=0.0015 MHz, x1 = 0.3845 | 1.66 ± 0.017
283.15 K, Frequency=0.0015 MHz, x1 = 0.4985 | 1.407 ± 0.014
283.15 K, Frequency=0.0015 MHz, x1 = 0.6954 | 1.07 ± 0.01
283.15 K, Frequency=0.0015 MHz, x1 = 0.9013 | 0.849 ± 0.009
283.15 K, Frequency=0.0015 MHz, x1 = 1 | 0.786 ± 0.008
283.15 K, Frequency=0.002 MHz, x1 = 0.0463 | 1.17 ± 0.02
283.15 K, Frequency=0.002 MHz, x1 = 0.0987 | 1.73 ± 0.021
283.15 K, Frequency=0.002 MHz, x1 = 0.1449 | 1.92 ± 0.02
283.15 K, Frequency=0.002 MHz, x1 = 0.1859 | 2.027 ± 0.02
283.15 K, Frequency=0.002 MHz, x1 = 0.2493 | 1.925 ± 0.019
283.15 K, Frequency=0.002 MHz, x1 = 0.3029 | 1.84 ± 0.019
283.15 K, Frequency=0.002 MHz, x1 = 0.3845 | 1.66 ± 0.017
283.15 K, Frequency=0.002 MHz, x1 = 0.4985 | 1.407 ± 0.014
283.15 K, Frequency=0.002 MHz, x1 = 0.6954 | 1.07 ± 0.01
283.15 K, Frequency=0.002 MHz, x1 = 0.9013 | 0.849 ± 0.009
283.15 K, Frequency=0.002 MHz, x1 = 1 | 0.786 ± 0.008
283.15 K, Frequency=0.0025 MHz, x1 = 0.0463 | 1.17 ± 0.02
283.15 K, Frequency=0.0025 MHz, x1 = 0.0987 | 1.73 ± 0.021
283.15 K, Frequency=0.0025 MHz, x1 = 0.1449 | 1.93 ± 0.02
283.15 K, Frequency=0.0025 MHz, x1 = 0.1859 | 2.028 ± 0.02
283.15 K, Frequency=0.0025 MHz, x1 = 0.2493 | 1.925 ± 0.019
283.15 K, Frequency=0.0025 MHz, x1 = 0.3029 | 1.84 ± 0.019
283.15 K, Frequency=0.0025 MHz, x1 = 0.3845 | 1.66 ± 0.017
283.15 K, Frequency=0.0025 MHz, x1 = 0.4985 | 1.407 ± 0.014
283.15 K, Frequency=0.0025 MHz, x1 = 0.6954 | 1.07 ± 0.01
283.15 K, Frequency=0.0025 MHz, x1 = 0.9013 | 0.849 ± 0.009
283.15 K, Frequency=0.0025 MHz, x1 = 1 | 0.786 ± 0.008
283.15 K, Frequency=0.003 MHz, x1 = 0.0463 | 1.17 ± 0.02
283.15 K, Frequency=0.003 MHz, x1 = 0.0987 | 1.73 ± 0.021
283.15 K, Frequency=0.003 MHz, x1 = 0.1449 | 1.93 ± 0.02

Conditions | electrical conductivity, 283.15 K [S/m] | mass density, 273.15 K [kg/m3] | viscosity, 283.15 K [mPa·s]
x1 = 0.0463 | 1.17 ± 0.02 | – | –
x1 = 0.0987 | 1.73 ± 0.021 | 1124.75 ± 9 | 3.75 ± 0.08
x1 = 0.1449 | 1.93 ± 0.02 | – | –
x1 = 0.1859 | 2.028 ± 0.02 | 1107.12 ± 8.9 | 5.58 ± 0.13
x1 = 0.2493 | 1.926 ± 0.019 | – | –
x1 = 0.3029 | 1.84 ± 0.019 | 1087.92 ± 8.7 | 8.99 ± 0.2
x1 = 0.3845 | 1.66 ± 0.017 | – | –
x1 = 0.4985 | 1.407 ± 0.014 | 1063.96 ± 8.5 | 17.71 ± 0.39
x1 = 0.6954 | 1.07 ± 0.011 | 1046.52 ± 8.4 | 30.79 ± 0.69
x1 = 0.9013 | 0.849 ± 0.009 | 1032.97 ± 8.3 | 49.24 ± 1.1
x1 = 1 | 0.786 ± 0.008 | 1027.69 ± 8.3 | 59.6 ± 1.4
